Assay results as given in ChEMBL document CHEMBL2390895, “Design, synthesis and structure activity relationships of spirocyclic compounds as potent CCR1 antagonists” (Bioorg Med Chem Lett, 2013).

How the values were obtained:
[1] = Clearance in rat hepatocytes assessed per 10^6 cells; format: ADME, cell-based, Hepatocyte; conditions: read-out: CLH
[2] = Clearance in human hepatocytes assessed per 10^6 cells; format: ADME, cell-based, Hepatocyte; conditions: read-out: CLH

hepatocyte CLint [1] [µL/min/1e6 cells]	hepatocyte CLint [2] [µL/min/1e6 cells]	Compound
33	< 4.6	CNC(=O)c1ccc(O)cc1OC[C@@H](O)CN1CCC2(CC1)Cc1cc(Cl)ccc1O2
22	26	CNC(=O)c1ccc(O)cc1OC[C@@H](O)CN1CCC2(CC1)Cc1cc(F)ccc1O2
28	10.6	O=C(NC1CC1)c1ccc(O)cc1OC[C@@H](O)CN1CCC2(CC1)Cc1cc(Cl)ccc1O2
–	10	Cc1ccc(C(=O)N2CC[C@H](O)C2)c(OC[C@@H](O)CN2CCC3(CC2)Cc2cc(F)ccc2O3)c1
–	11	Cc1ccc(C(=O)N2CC[C@H](O)C2)c(OC[C@@H](O)CN2CCC3(CC2)Cc2cc(Cl)ccc2O3)c1
< 4	6.8	O=C(c1ccc(F)cc1OC[C@@H](O)CN1CCC2(CC1)Cc1cc(Cl)ccc1O2)N1CC[C@H](O)C1
8.1	< 3	O=C(c1cc(Cl)c(O)cc1OC[C@@H](O)CN1CCC2(CC1)Cc1cc(Cl)ccc1O2)N1CC[C@H](O)C1
6.7	< 3	O=C(c1ccc(O)cc1OC[C@@H](O)CN1CCC2(CC1)Cc1cc(Cl)ccc1O2)N1CC[C@H](O)C1
23	9.6	O=C(c1ccc(O)cc1OC[C@@H](O)CN1CCC2(CC1)Cc1cc(Cl)ccc1O2)N1CCCC1
–	14	O=C(c1ccc(O)cc1OC[C@@H](O)CN1CCC2(CC1)Cc1cc(Cl)ccc1O2)N1CCCCC1
45	5.2	O=C(NC1CC1)c1ccccc1OC[C@@H](O)CN1CCC2(CC1)Cc1cc(Cl)ccc1O2
–	15	COc1ccc(C(=O)NC2CC2)c(OC[C@@H](O)CN2CCC3(CC2)Cc2cc(Cl)ccc2O3)c1
20	4.6	O=C(NC1CC1)c1ccc(F)cc1OC[C@@H](O)CN1CCC2(CC1)Cc1cc(Cl)ccc1O2
